In PubChem BioAssay (NCI):
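96-well plates; 48 h exposure; 5 concentrations. Endpoints by linear interpolation between flanking doses. Not reached: highest tested concentration assigned. Definition used: TGI = concentration required for complete inhibition of growth.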

Assays:
Assay in all cases: NCI-60 cell line screen, 48 h
RPMI-8226 leukemia = tested on: RPMI-8226 leukemia
SK-MEL-5 melanoma = tested on: SK-MEL-5 melanoma
T-47D breast = tested on: T-47D breast
HCT-15 colon = tested on: HCT-15 colon
LOX IMVI melanoma = tested on: LOX IMVI melanoma
ACHN renal = tested on: ACHN renal
BT-549 breast = tested on: BT-549 breast
MOLT-4 leukemia = tested on: MOLT-4 leukemia
SK-MEL-28 melanoma = tested on: SK-MEL-28 melanoma
K-562 leukemia = tested on: K-562 leukemia
MCF7 breast = tested on: MCF7 breast
HL-60(TB) leukemia = tested on: HL-60(TB) leukemia
SR leukemia = tested on: SR leukemia
SF-539 CNS = tested on: SF-539 CNS
COLO 205 colon = tested on: COLO 205 colon
OVCAR-8 ovarian = tested on: OVCAR-8 ovarian
UACC-62 melanoma = tested on: UACC-62 melanoma
NCI-H522 lung = tested on: NCI-H522 lung
CAKI-1 renal = tested on: CAKI-1 renal
NCI/ADR-RES ovarian = tested on: NCI/ADR-RES ovarian
MALME-3M melanoma = tested on: MALME-3M melanoma
MDA-MB-231 breast = tested on: MDA-MB-231 breast
HCC-2998 colon = tested on: HCC-2998 colon
UACC-257 melanoma = tested on: UACC-257 melanoma
OVCAR-4 ovarian = tested on: OVCAR-4 ovarian
NCI-H23 lung = tested on: NCI-H23 lung
HOP-92 NSCLC = tested on: HOP-92 NSCLC
OVCAR-5 ovarian = tested on: OVCAR-5 ovarian
SNB-19 CNS = tested on: SNB-19 CNS
MDA-MB-435 = tested on: MDA-MB-435
M14 melanoma = tested on: M14 melanoma
NCI-H226 lung = tested on: NCI-H226 lung
SW-620 colon = tested on: SW-620 colon
TK-10 renal = tested on: TK-10 renal
PC-3 prostate = tested on: PC-3 prostate
KM12 colon = tested on: KM12 colon
SK-OV-3 ovarian = tested on: SK-OV-3 ovarian
SNB-75 CNS = tested on: SNB-75 CNS
SN12C renal = tested on: SN12C renal
OVCAR-3 ovarian = tested on: OVCAR-3 ovarian
HS 578T breast = tested on: HS 578T breast
MDA-N = tested on: MDA-N
SF-295 CNS = tested on: SF-295 CNS
A549 NSCLC = tested on: A549 NSCLC
SF-268 CNS = tested on: SF-268 CNS
UO-31 renal = tested on: UO-31 renal
DU-145 prostate = tested on: DU-145 prostate
U251 CNS = tested on: U251 CNS
RXF 393 renal = tested on: RXF 393 renal
HT29 colon = tested on: HT29 colon
HCT-116 colon = tested on: HCT-116 colon
SK-MEL-2 melanoma = tested on: SK-MEL-2 melanoma
EKVX NSCLC = tested on: EKVX NSCLC
HOP-62 NSCLC = tested on: HOP-62 NSCLC
IGROV1 ovarian = tested on: IGROV1 ovarian
CCRF-CEM leukemia = tested on: CCRF-CEM leukemia
786-0 renal = tested on: 786-0 renal
A498 renal = tested on: A498 renal
NCI-H460 lung = tested on: NCI-H460 lung

C=CC(=O)NC(O)(C(=O)OCC)C(F)(F)F (stereo not drawn)
TGI (RPMI-8226 leukemia): > 100 µM | TGI (SK-MEL-5 melanoma): > 100 µM | TGI (T-47D breast): > 100 µM | TGI (HCT-15 colon): > 100 µM | TGI (LOX IMVI melanoma): > 100 µM | TGI (ACHN renal): > 100 µM | TGI (BT-549 breast): > 100 µM | TGI (MOLT-4 leukemia): > 100 µM | TGI (SK-MEL-28 melanoma): > 100 µM | TGI (K-562 leukemia): > 100 µM | TGI (MCF7 breast): > 100 µM | TGI (HL-60(TB) leukemia): > 100 µM | TGI (SR leukemia): > 100 µM | TGI (SF-539 CNS): > 100 µM | TGI (COLO 205 colon): > 100 µM | TGI (OVCAR-8 ovarian): > 100 µM | TGI (UACC-62 melanoma): > 100 µM | TGI (NCI-H522 lung): > 100 µM | TGI (CAKI-1 renal): > 100 µM | TGI (NCI/ADR-RES ovarian): > 100 µM | TGI (MALME-3M melanoma): > 100 µM | TGI (MDA-MB-231 breast): > 100 µM | TGI (HCC-2998 colon): > 100 µM | TGI (UACC-257 melanoma): > 100 µM | TGI (OVCAR-4 ovarian): > 100 µM | TGI (NCI-H23 lung): > 100 µM | TGI (HOP-92 NSCLC): > 100 µM | TGI (OVCAR-5 ovarian): > 100 µM | TGI (SNB-19 CNS): > 100 µM | TGI (MDA-MB-435): > 100 µM | TGI (M14 melanoma): > 100 µM | TGI (NCI-H226 lung): > 100 µM | TGI (SW-620 colon): > 100 µM | TGI (TK-10 renal): > 100 µM | TGI (PC-3 prostate): > 100 µM | TGI (KM12 colon): > 100 µM | TGI (SK-OV-3 ovarian): > 100 µM | TGI (SNB-75 CNS): > 100 µM | TGI (SN12C renal): > 100 µM | TGI (OVCAR-3 ovarian): > 100 µM | TGI (HS 578T breast): > 100 µM | TGI (MDA-N): > 100 µM | TGI (SF-295 CNS): > 100 µM | TGI (A549 NSCLC): > 100 µM | TGI (SF-268 CNS): > 100 µM | TGI (UO-31 renal): > 100 µM | TGI (DU-145 prostate): > 100 µM | TGI (U251 CNS): > 100 µM | TGI (RXF 393 renal): > 100 µM | TGI (HT29 colon): > 100 µM | TGI (HCT-116 colon): > 100 µM | TGI (SK-MEL-2 melanoma): > 100 µM | TGI (EKVX NSCLC): > 100 µM | TGI (HOP-62 NSCLC): > 100 µM | TGI (IGROV1 ovarian): > 100 µM | TGI (CCRF-CEM leukemia): > 100 µM

O=C1c2ccc(O)cc2OC(c2cc(O)c(O)c(O)c2)C1O (stereo not drawn)
TGI (RPMI-8226 leukemia): 48.6 µM | TGI (SK-MEL-5 melanoma): > 100 µM | TGI (T-47D breast): 85.9 µM | TGI (HCT-15 colon): > 100 µM | TGI (LOX IMVI melanoma): 38.5 µM | TGI (ACHN renal): 48.9 µM | TGI (BT-549 breast): 48 µM | TGI (MOLT-4 leukemia): 51.7 µM | TGI (SK-MEL-28 melanoma): > 100 µM | TGI (MCF7 breast): 51.9 µM | TGI (HL-60(TB) leukemia): 48.4 µM | TGI (SR leukemia): 56.5 µM | TGI (786-0 renal): 45.4 µM | TGI (SF-539 CNS): 52.7 µM | TGI (COLO 205 colon): 83.3 µM | TGI (OVCAR-8 ovarian): 38.4 µM | TGI (UACC-62 melanoma): > 100 µM | TGI (NCI-H522 lung): 58.7 µM | TGI (CAKI-1 renal): > 100 µM | TGI (NCI/ADR-RES ovarian): 52.9 µM | TGI (MALME-3M melanoma): > 100 µM | TGI (MDA-MB-231 breast): 39.7 µM | TGI (HCC-2998 colon): > 100 µM | TGI (UACC-257 melanoma): > 100 µM | TGI (OVCAR-4 ovarian): > 100 µM | TGI (NCI-H23 lung): > 100 µM | TGI (HOP-92 NSCLC): > 100 µM | TGI (OVCAR-5 ovarian): > 100 µM | TGI (SNB-19 CNS): > 100 µM | TGI (MDA-MB-435): 43.2 µM | TGI (M14 melanoma): > 100 µM | TGI (NCI-H226 lung): > 100 µM | TGI (SW-620 colon): 70.3 µM | TGI (TK-10 renal): 69.3 µM | TGI (PC-3 prostate): > 100 µM | TGI (KM12 colon): 67.1 µM | TGI (SK-OV-3 ovarian): > 100 µM | TGI (SN12C renal): 36.6 µM | TGI (OVCAR-3 ovarian): > 100 µM | TGI (HS 578T breast): > 100 µM | TGI (MDA-N): 34 µM | TGI (SF-295 CNS): 39.9 µM | TGI (A549 NSCLC): > 100 µM | TGI (SF-268 CNS): > 100 µM | TGI (UO-31 renal): > 100 µM | TGI (A498 renal): 73.5 µM | TGI (DU-145 prostate): > 100 µM | TGI (NCI-H460 lung): 39.5 µM | TGI (U251 CNS): 48.7 µM | TGI (RXF 393 renal): > 100 µM | TGI (HT29 colon): 43.9 µM | TGI (HCT-116 colon): 41 µM | TGI (SK-MEL-2 melanoma): > 100 µM | TGI (EKVX NSCLC): 39.3 µM | TGI (HOP-62 NSCLC): > 100 µM | TGI (IGROV1 ovarian): 39.1 µM | TGI (CCRF-CEM leukemia): 55.9 µM
